Results published in the supplement of paper PMC11208160.

Assay: recombinant barcode read abundance after kanamycin selection (control-corrected) (log10(CPM+1)); higher = more efficient recombination; sequences stand for … in AGTGCAGAGAAAATCGGCCAGTTTTCTCTGCCTGCAGTCCGCATGCCGT…ATTTATGCAGCGGACTGCCTTTCTCCCAAAGTGATAAACCGGACAGTATCATGGACCGGTTTTCCCGGTAATCCGTATTTGCAAGGTTGGTTTCACT; site = the 11-nt target
In short: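 Pooled E. coli screen pairing targets with IS621 bridge RNA target-binding loops. Each oligo (promoter, target, barcode, J23119-driven first 104 bridge RNA bases) was Gibson-cloned into a vector with the remaining 73 bp and T7-inducible recombinase, then co-electroporated with a donor plasmid. Two replicates each were plated on chloramphenicol/ampicillin LB agar (control) or chloramphenicol/ampicillin/kanamycin with 0.1 mM IPTG. Recombination efficiency is recombinant-junction barcode counts as CPM, averaged, control-corrected, reported as log10(CPM+1).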

Sequence	recombinant barcode read abundance (log10)
GAGTCCACTTGGGTTCTAACCTGTTGCGTCT [GAGTCCACTAC_LTGcore_CT_RTGcore_AG] (site GAGTCCACTAC) (LTG core: CT, RTG core: AG)	0
GAGTCCACTTGGGTTCTAACCTGTTGCGTGT [GAGTCCACTAC_LTGcore_CT_RTGcore_AC] (site GAGTCCACTAC) (LTG core: CT, RTG core: AC)	0.0606
GAGTCCACTTGGGTTCTAACCTGTTGCGTTG [GAGTCCACTAC_LTGcore_CT_RTGcore_CA] (site GAGTCCACTAC) (LTG core: CT, RTG core: CA)	0
GAGTCCAGATGGGTTCTAACCTGTTGCGTAG [GAGTCCACTAC_LTGcore_GA_RTGcore_CT] (site GAGTCCACTAC) (LTG core: GA, RTG core: CT)	0.294
GAGTCCAGCTGGGTTCTAACCTGTTGCGTGC [GAGTCCACTAC_LTGcore_GC_RTGcore_GC] (site GAGTCCACTAC) (LTG core: GC, RTG core: GC)	0.174
GAGTCCAGGTGGGTTCTAACCTGTTGCGTCC [GAGTCCACTAC_LTGcore_GG_RTGcore_GG] (site GAGTCCACTAC) (LTG core: GG, RTG core: GG)	0.0822
GAGTCCATATGGGTTCTAACCTGTTGCGTTA [GAGTCCACTAC_LTGcore_TA_RTGcore_TA] (site GAGTCCACTAC) (LTG core: TA, RTG core: TA)	0.0207
GAGTCCATCTGGGTTCTAACCTGTTGCGTAG [GAGTCCACTAC_LTGcore_TC_RTGcore_CT] (site GAGTCCACTAC) (LTG core: TC, RTG core: CT)	0.0202
GAGTCCATCTGGGTTCTAACCTGTTGCGTGA [GAGTCCACTAC_LTGcore_TC_RTGcore_TC] (site GAGTCCACTAC) (LTG core: TC, RTG core: TC)	0.0654
GAGTCCATTTGGGTTCTAACCTGTTGCGTAG [GAGTCCACTAC_LTGcore_TT_RTGcore_CT] (site GAGTCCACTAC) (LTG core: TT, RTG core: CT)	0.0725
GAGTCCTAATGGGTTCTAACCTGTTGCCTAG [GAGTCCTCTAG_LTGcore_AA_RTGcore_CT] (site GAGTCCTCTAG) (LTG core: AA, RTG core: CT)	0.149
GAGTCCTAATGGGTTCTAACCTGTTGCCTTT [GAGTCCTCTAG_LTGcore_AA_RTGcore_AA] (site GAGTCCTCTAG) (LTG core: AA, RTG core: AA)	0.11
GAGTCCTCTTGGGTTCTAACCTGTTGCCTCA [GAGTCCTCTAG_LTGcore_CT_RTGcore_TG] (site GAGTCCTCTAG) (LTG core: CT, RTG core: TG)	0.316
GAGTCCTCTTGGGTTCTAACCTGTTGCCTCG [GAGTCCTCTAG_LTGcore_CT_RTGcore_CG] (site GAGTCCTCTAG) (LTG core: CT, RTG core: CG)	1.19
GAGTCCTCTTGGGTTCTAACCTGTTGCCTGT [GAGTCCTCTAG_LTGcore_CT_RTGcore_AC] (site GAGTCCTCTAG) (LTG core: CT, RTG core: AC)	0.0922
GAGTCCTGGTGGGTTCTAACCTGTTGCCTAG [GAGTCCTCTAG_LTGcore_GG_RTGcore_CT] (site GAGTCCTCTAG) (LTG core: GG, RTG core: CT)	0.165
GAGTCCTGTTGGGTTCTAACCTGTTGCCTAG [GAGTCCTCTAG_LTGcore_GT_RTGcore_CT] (site GAGTCCTCTAG) (LTG core: GT, RTG core: CT)	0.165

Sequence	recombinant barcode read abundance (log10)
GAGTCCTTGTGGGTTCTAACCTGTTGCCTAG [GAGTCCTCTAG_LTGcore_TG_RTGcore_CT] (site GAGTCCTCTAG) (LTG core: TG, RTG core: CT)	0.0483
GCGCGACAGTGGGTTCTAACCTGTTGCTTCT [GCGCGACCTAA_LTGcore_AG_RTGcore_AG] (site GCGCGACCTAA) (LTG core: AG, RTG core: AG)	0.313
GCGCGACATTGGGTTCTAACCTGTTGCTTAG [GCGCGACCTAA_LTGcore_AT_RTGcore_CT] (site GCGCGACCTAA) (LTG core: AT, RTG core: CT)	0.0488
GCGCGACATTGGGTTCTAACCTGTTGCTTAT [GCGCGACCTAA_LTGcore_AT_RTGcore_AT] (site GCGCGACCTAA) (LTG core: AT, RTG core: AT)	0.493
GCGCGACCTTGGGTTCTAACCTGTTGCTTAG [GCGCGACCTAA_LTGcore_CT_RTGcore_CT] (site GCGCGACCTAA) (LTG core: CT, RTG core: CT)	0.515
GCGCGACGATGGGTTCTAACCTGTTGCTTTC [GCGCGACCTAA_LTGcore_GA_RTGcore_GA] (site GCGCGACCTAA) (LTG core: GA, RTG core: GA)	0.0229
GCGCGACTGTGGGTTCTAACCTGTTGCTTAG [GCGCGACCTAA_LTGcore_TG_RTGcore_CT] (site GCGCGACCTAA) (LTG core: TG, RTG core: CT)	0.0192
GCGCGACTTTGGGTTCTAACCTGTTGCTTAA [GCGCGACCTAA_LTGcore_TT_RTGcore_TT] (site GCGCGACCTAA) (LTG core: TT, RTG core: TT)	0.108
GCGGGACCGTGGGTTCTAACCTGTTGCCTCG [GCGGGACCTAG_LTGcore_CG_RTGcore_CG] (site GCGGGACCTAG) (LTG core: CG, RTG core: CG)	0.248
GCGGGACCTTGGGTTCTAACCTGTTGCCTAA [GCGGGACCTAG_LTGcore_CT_RTGcore_TT] (site GCGGGACCTAG) (LTG core: CT, RTG core: TT)	1.15
GCGGGACCTTGGGTTCTAACCTGTTGCCTAC [GCGGGACCTAG_LTGcore_CT_RTGcore_GT] (site GCGGGACCTAG) (LTG core: CT, RTG core: GT)	0.997
GCGGGACCTTGGGTTCTAACCTGTTGCCTAG [GCGGGACCTAG_LTGcore_CT_RTGcore_CT] (site GCGGGACCTAG) (LTG core: CT, RTG core: CT)	2.64
GCGGGACCTTGGGTTCTAACCTGTTGCCTAT [GCGGGACCTAG_LTGcore_CT_RTGcore_AT] (site GCGGGACCTAG) (LTG core: CT, RTG core: AT)	1.68
GCGGGACCTTGGGTTCTAACCTGTTGCCTCG [GCGGGACCTAG_LTGcore_CT_RTGcore_CG] (site GCGGGACCTAG) (LTG core: CT, RTG core: CG)	1.7
GCGGGACCTTGGGTTCTAACCTGTTGCCTGA [GCGGGACCTAG_LTGcore_CT_RTGcore_TC] (site GCGGGACCTAG) (LTG core: CT, RTG core: TC)	0.0737
GCGGGACCTTGGGTTCTAACCTGTTGCCTTG [GCGGGACCTAG_LTGcore_CT_RTGcore_CA] (site GCGGGACCTAG) (LTG core: CT, RTG core: CA)	1.08
GCGGGACGATGGGTTCTAACCTGTTGCCTAG [GCGGGACCTAG_LTGcore_GA_RTGcore_CT] (site GCGGGACCTAG) (LTG core: GA, RTG core: CT)	0.171
